Data: patent US20070173496A1, “Novel polymorph E of Olanzapine and preparation of anhydrous non-solvated crystalline polymorphic Form I of 2-methyl-4(4-methyl-1-piperazinyl)-10H-thieno[2,3-b][1,5] benzodiazepine (Olanzapine Form I) from the polymorphic Olanzapine Form E” (priority 2006, published 2007)

Key:
[1] = commercially available Form I prepared by prior art methods (U.S. Pat. No. 5,229,382); cited from earlier work
[2] = color stability of Olanzapine Form I on exposure at room temperature / in air; assay type: physicochemical; conditions: Form I from Form E by rapid crystallization in methylene chloride-methanol and step-wise drying, at least 3 months
From the text: In another aspect of this invention the new poly-type Olanzapine Form E generated with rapid crystallization in methylene chloride-methanol along with step-wise drying techniques produces non-solvated anhydrous Form I of 2-methyl-4-(4-methyl-1-piperazinyl)-10H-thieno[2,3-b][1,5] benzodiazepine which is stable enough to be used commercially in pharmaceutical formulations.

[3] = solid-state stability of poly-type Form E at room temperature; assay type: physicochemical; conditions: step-wise drying converts it to Form I
From the text: The new poly-type E is stable at room temperature but when subjected to step-wise drying techniques results in substantially pure Olanzapine Form I.

Row | SMILES | color change over time due to exposure in air [1] | color change during exposure at room temperature [2] | stability at room temperature [3]
1 | Cc1cc2c(s1)Nc1ccccc1N=C2N1CCN(C)CC1 [Olanzapine Form I, 2-methyl-4-(4-methyl-1-piperazinyl)-10H-thieno[2,3-b][1,5] benzodiazepine] | color is found to change over time | No color change | –
2 | Cc1cc2c(s1)Nc1ccccc1N=C2N1CCN(C)CC1 [poly-type E, 2-methyl-4-(4-methyl-1-piperazinyl)-10H-thieno[2,3-b][1,5] benzodiazepine] | – | – | stable
